Experiments:
[1] = biological target: T1, FXR-LBD (Homo sapiens, UniProt Q96RI1); experiment: FXR Coactivator Assay (LanthaScreen TR-FRET); assay type: biochemical
T1 construct: Add 5 μl of 4×FXR-LBD to 384 well assay plates; purchased
T1 sequence (Q96RI1 262-486 limits assumed): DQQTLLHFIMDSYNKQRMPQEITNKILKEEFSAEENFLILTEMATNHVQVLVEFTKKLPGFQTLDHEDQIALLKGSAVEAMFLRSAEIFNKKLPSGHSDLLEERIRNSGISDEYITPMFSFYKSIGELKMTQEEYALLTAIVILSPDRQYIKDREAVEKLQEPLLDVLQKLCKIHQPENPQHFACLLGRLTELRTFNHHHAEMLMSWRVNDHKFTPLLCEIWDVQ
Procedure: (§1) • 1. Hek293T cells were plated at 1.1*10^6/ml into a 100 mm dish. • 2. […] Cells were incubated at 37° C. under 5% CO2 atmosphere. • 3. All of compounds were 3-fold serial diluted from 10 mM stock for 10 doses in DMSO. • 4. Transfer compound dilutions into 384 well assay plates using liquid workstation. • 5. Seed 25 ul HEK293T cells into 384 well assay plate (prepared step 4) at 0.6*10^5/ml. Cells were incubated at 37° C. under 5% CO2 atmosphere overnight. • 6. Add 25 ul steady-Glo™ Luciferase Assay Reagent into each well of 384-well assay plate. • 7. […] Calculate EC50 by fitting % Activity values and log of compound concentrations to nonlinear regression (dose response−variable slope) with Graphpad 5.0. FXR Coactivator Assay Reagents: LanthaScreen™ TR-FRET Farnesoid X Receptor Coactivator Assay GW4064 as a positive control Process: • 1. All of compounds were 3-fold serial diluted from 10 mM stock for 10 doses in DMSO. • 2. Dilute each 100× agonist serial dilution to 2× using Complete Coregulator buffer G. • 3. Transfer 10 μl of each of the 2× agonist serial dilutions to 384 well assay plates. • 4. Add 5 μl of 4×FXR-LBD to 384 well assay plates. • 5. […] Incubate at room temperature protected from light. • 7. […] Calculate EC50 by fitting % Activity values and log of compound concentrations to nonlinear regression (dose response−variable slope) with Graphpad 5.0.

[2] = biological target: T2, FXR (Homo sapiens, UniProt Q96RI1); experiment: FXR Transactivation Assay (GAL4 luciferase reporter, pBIND-FXR in HEK293T); assay type: cell-based; conditions: HEK293T cells
T2 construct: expressed in transfected cells; host or cells: HEK293T
T2 sequence (Q96RI1 1-486): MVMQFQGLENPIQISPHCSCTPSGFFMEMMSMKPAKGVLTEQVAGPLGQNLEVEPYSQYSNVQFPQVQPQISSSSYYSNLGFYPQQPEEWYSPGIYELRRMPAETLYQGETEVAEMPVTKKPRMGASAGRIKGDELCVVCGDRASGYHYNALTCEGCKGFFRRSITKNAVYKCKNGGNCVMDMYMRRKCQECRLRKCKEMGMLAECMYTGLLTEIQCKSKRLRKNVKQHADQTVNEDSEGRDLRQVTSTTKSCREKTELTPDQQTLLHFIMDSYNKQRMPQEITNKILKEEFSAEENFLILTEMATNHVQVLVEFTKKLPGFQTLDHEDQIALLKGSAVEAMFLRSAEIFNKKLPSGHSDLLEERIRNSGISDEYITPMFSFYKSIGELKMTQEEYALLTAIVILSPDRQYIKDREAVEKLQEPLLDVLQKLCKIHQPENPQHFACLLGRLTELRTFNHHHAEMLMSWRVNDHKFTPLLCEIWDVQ
Procedure: FXR Transactivation Assay
pGL4.35 [luc2P/9XGAL4 UAS/Hygro]
Steady-Glo™ Luciferase Assay System
GW4064 as a positive control
as §1

SMILES | EC50 [1] | EC50 [2]
COc1cc(C(=O)O)cc2sc(N3CCCN(Cc4c(-c5c(Cl)cccc5Cl)noc4C(C)C)CC3)nc12 [II-40] | 10 to 100 nM | 101 to 400 nM
COc1cc(C(=O)O)cc2sc(N3CCC(Cc4c(-c5c(Cl)cccc5Cl)noc4C(C)C)CC3)nc12 [II-43] | 10 to 100 nM | 101 to 400 nM
CC(C)c1cc(C(=O)O)cc2sc(N3CCN(Cc4c(-c5c(Cl)cccc5Cl)noc4C4CC4)C[C@H]3C)nc12 [VII-01, (R)-2-(4-((5-Cyclopropyl-3-(2,6-dichlorophenyl)isoxazol-4-yl)methyl)-2-methylpiperazin-1-yl)-4-isopropylbenzo[d]thiazole-6-carboxylic acid] | 10 to 100 nM | 10 to 100 nM
COc1cc(C(N)=O)cc2sc(N3CCN(Cc4c(-c5c(Cl)cccc5Cl)noc4C(C)C)CC3)nc12 [VIII-01] | 10 to 100 nM | 101 to 400 nM
